How the values were obtained:
[1] = target: T1, WEE1 (Homo sapiens, UniProt P30291); experiment: Selectivity versus WEE1 assay (ADP-Glo enzymatic assay); type: biochemical; details: banded; for IC50: ADP-Glo, 15 nM WEE1, 60 minutes at 26° C.; for PKMYT1 vs. WEE1 selectivity: fold difference in selectivity for PKMYT1 over WEE1, ">N" = at least in this band but could be higher
T1 construct: purchased Thermo Fisher PR7373A
Procedure, shortened: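 15 nM WEE1, 30 µM ATP, 50 mM HEPES pH 7.5, 10 mM MgCl2, 1 mM EGTA, 0.01% Brij-35, 1% DMSO; 60 min, 26° C; ADP-Glo luminescence; IC50 from curve fit, replicates within 3-fold, r2 >0.9.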

[2] = target: T2, Human PKMYT1 (Homo sapiens, UniProt Q99640); experiment: PKMYT1 biochemical ADP-Glo enzymatic assay; details: ADP-Glo; 15 nM PKMYT1 kinase domain, 500 µM ATP, 60 minutes at 26° C.; banded
T2 construct: Human PKMYT1 75-362 was cloned as a TEV cleavable 6xHis fusion; 6xHis (TEV cleavable) (cleaved yes); made in house; host or cells: bacterial cells
T2 sequence (Q99640 75-362): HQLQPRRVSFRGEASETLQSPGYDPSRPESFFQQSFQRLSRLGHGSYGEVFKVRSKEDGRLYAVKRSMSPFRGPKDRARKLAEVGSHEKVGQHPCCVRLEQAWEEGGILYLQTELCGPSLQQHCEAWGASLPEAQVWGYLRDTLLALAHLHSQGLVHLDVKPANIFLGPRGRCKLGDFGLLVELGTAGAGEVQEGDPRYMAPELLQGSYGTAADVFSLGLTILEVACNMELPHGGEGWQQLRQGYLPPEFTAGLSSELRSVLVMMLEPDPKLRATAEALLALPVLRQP
Procedure, shortened: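 PKMYT1 75-362 (His-cleaved, bacterial) 15 nM; ATP 500 µM; HEPES pH 7.5, MgCl2, EGTA, Brij-35, 1% DMSO; 60 min, 26 °C; ADP-Glo Max luminescence; 10-pt 3-fold titration → IC50; replicates within 3-fold, r2 >0.9.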

T1 sequence (P30291 whole entry): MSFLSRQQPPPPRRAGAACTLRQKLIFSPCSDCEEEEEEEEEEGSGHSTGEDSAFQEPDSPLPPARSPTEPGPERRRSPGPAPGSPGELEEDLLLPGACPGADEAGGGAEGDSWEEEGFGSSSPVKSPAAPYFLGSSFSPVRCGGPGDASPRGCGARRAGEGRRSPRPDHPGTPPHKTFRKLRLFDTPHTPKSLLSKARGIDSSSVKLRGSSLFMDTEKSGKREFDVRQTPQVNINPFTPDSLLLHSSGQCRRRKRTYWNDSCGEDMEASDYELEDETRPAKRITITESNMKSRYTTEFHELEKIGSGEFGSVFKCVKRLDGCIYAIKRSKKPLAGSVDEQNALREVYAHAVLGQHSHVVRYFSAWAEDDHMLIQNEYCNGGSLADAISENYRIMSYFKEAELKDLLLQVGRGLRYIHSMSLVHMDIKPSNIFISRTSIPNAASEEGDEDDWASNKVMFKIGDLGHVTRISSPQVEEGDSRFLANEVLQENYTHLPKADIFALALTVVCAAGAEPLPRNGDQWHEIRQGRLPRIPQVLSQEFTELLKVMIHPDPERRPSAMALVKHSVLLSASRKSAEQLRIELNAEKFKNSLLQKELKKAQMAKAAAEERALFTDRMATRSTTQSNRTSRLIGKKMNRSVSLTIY

Row | SMILES | IC50 [1] [µM] | PKMYT1 vs. WEE1 selectivity [1] | IC50 [2] [µM]
1 | Cc1ccc(O)c(C)c1NC(=O)c1cnc(NCC2CCN(C(=O)CC(C)(C)O)CC2)s1 [BAA-215, N-(3-hydroxy-2,6-dimethyl-phenyl)-2-[[1-(3-hydroxy-3-methyl-butanoyl)-4-piperidyl]methylamino]thiazole-5-carboxamide] | > 11 | >X (100-<1000 fold) | 0.05 to 1
2 | Cc1ccc(O)c(C)c1NC(=O)c1cnc(NCCCN2CCN(C)CC2)s1 [BAA-218, N-(3-Hydroxy-2,6-dimethyl-phenyl)-2-[3-(4-methylpiperazin-1-yl)propylamino]thiazole-5-carboxamide] | > 11 | W (10-<100 fold) | 1 to 11
3 | Cc1ccc(O)c(C)c1NC(=O)c1cnc(Nc2ccn(CC(=O)N3CCNCC3)n2)s1 [BAA-222, N-(3-hydroxy-2,6-dimethylphenyl)-2-((1-(2-oxo-2-(piperazin-1-yl)ethyl)-1H-pyrazol-3-yl)amino)thiazole-5-carboxamide] | > 11 | X (100-<1000 fold) | < 0.05
4 | Cc1ccc(O)c(C)c1NC(=O)c1cnc(Nc2ccn(CC(=O)NCCN3CCNCC3)n2)s1 [BAA-228, N-(3-hydroxy-2,6-dimethylphenyl)-2-((1-(2-oxo-2-((2-(piperazin-1-yl)ethyl)amino)ethyl)-1H-pyrazol-3-yl)amino)thiazole-5-carboxamide] | > 11 | X (100-<1000 fold) | < 0.05
5 | CCN(C(=O)C(C)(C)C)c1ccc(C)c(Nc2ncc(C(=O)Nc3c(C)ccc(O)c3C)s2)n1 [BAA-234, 2-((6-(N-ethylpivalamido)-3-methylpyridin-2-yl)amino)-N-(3-hydroxy-2,6-dimethylphenyl) thiazole-5-carboxamide] | 1 to 11 | X (100-<1000 fold) | < 0.05

Second part, the compound after the results:

Row | IC50 [1] [µM] | PKMYT1 vs. WEE1 selectivity [1] | IC50 [2] [µM] | SMILES
6 | 1 to 11 | V (3-<10 fold) | 1 to 11 | Cc1ccc(O)c(C)c1NC(=O)c1sc(Nc2ccn(C)n2)nc1N [BAA-219, 4-Amino-N-(3-hydroxy-2,6-dimethyl-phenyl)-2-[(1-methylpyrazol-3-yl)amino]thiazole-5-carboxamide]
7 | > 11 | X (100-<1000 fold) | 0.05 to 1 | CNc1ncc(C(=O)Nc2c(C)ccc(O)c2C)s1 [BAA-221, N-(3-Hydroxy-2,6-dimethyl-phenyl)-2-(methylamino)thiazole-5-carboxamide]
8 | > 11 | X (100-<1000 fold) | < 0.05 | Cc1ccc(O)c(C)c1NC(=O)c1cnc(Nc2ccn(CC(=O)N3C[C@H]4C[C@@H]3CN4)n2)s1 [BAA-223, 2-((1-(2-((1R,4R)-2,5-diazabicyclo[2.2.1]heptan-2-yl)-2-oxoethyl)-1H-pyrazol-3-yl)amino)-N-(3-hydroxy-2,6-dimethylphenyl)thiazole-5-carboxamide]
9 | > 11 | X (100-<1000 fold) | < 0.05 | Cc1ccc(O)c(C)c1NC(=O)c1cnc(Nc2ccn(CC(=O)N3CCC4(CCNC4)CC3)n2)s1 [BAA-225, N-(3-hydroxy-2,6-dimethylphenyl)-2-((1-(2-oxo-2-(2,8-diazaspiro[4.5]decan-8-yl)ethyl)-1H-pyrazol-3-yl)amino)thiazole-5-carboxamide]
10 | > 11 | X (100-<1000 fold) | < 0.05 | Cc1ccc(O)c(C)c1NC(=O)c1cnc(Nc2ccn(CC(=O)NCC3CCNCC3)n2)s1 [BAA-226]
11 | > 11 | X (100-<1000 fold) | < 0.05 | Cc1ccc(O)c(C)c1NC(=O)c1cnc(Nc2ccn(CC(=O)N3C[C@@H](C)N[C@@H](C)C3)n2)s1 [BAA-227, 2-((1-(2-((3R,5S)-3,5-dimethylpiperazin-1-yl)-2-oxoethyl)-1H-pyrazol-3-yl)amino)-N-(3-hydroxy-2,6-dimethylphenyl)thiazole-5-carboxamide]

Reference: patent publication US20260297042A1, “BIARYLAMIDE DERIVATIVES AND THEIR USE AS PKMYT1 INHIBITORS” (CANCER RESEARCH TECHNOLOGY LIMITED, priority 2023, published 2026)
